Reference: US11214564B2, “Compounds with thymine skeleton for use in medicine” (TECHNISCHE UNIVERSITÄT DRESDEN, priority 2019, dated 2022)

Molecular target: HSP27 (Homo sapiens, UniProt P04792)
Experiment: Aggregation assay: HSP27 chaperone activity on heat-induced aggregation of citrate synthase
Type: biochemical
Conditions: compound 10 μM; 1.44 μM CS, 481 nM HSP27, 43° C., 500 nm
Method: To test how small molecules affect the chaperone activity of HSP27, misfolding and aggregation of citrate synthase (CS), a well-known in vitro client protein of HSP27, was measured. Citrate synthase misfolds and aggregates when exposed to heat shock at 43° C. This heat denaturation is prevented or delayed in the presence of HSP27 (CS+HSP27) (Jakob et al. (1993)). […] The samples were incubated at 43° C. and the aggregation behavior of CS was monitored in a spectrometer (PerkinElmer LS55) at a wavelength of 500 nm. Substances inhibiting HSP27's chaperone activity lead to continued denaturation of the client protein and its aggregation in solution. This inhibition correlates with the strength of the interaction between HSP27 and the test substance, which is related to its binding efficiency.
In the reference experiment BVDU (CS+HSP27+BVDU) was tested at a concentration of 750 μM as previously described (Heinrich et al. (2016)).
The compounds according to the invention were tested at a concentration of 10 μM.

Chain of HSP27 (P04792 whole entry): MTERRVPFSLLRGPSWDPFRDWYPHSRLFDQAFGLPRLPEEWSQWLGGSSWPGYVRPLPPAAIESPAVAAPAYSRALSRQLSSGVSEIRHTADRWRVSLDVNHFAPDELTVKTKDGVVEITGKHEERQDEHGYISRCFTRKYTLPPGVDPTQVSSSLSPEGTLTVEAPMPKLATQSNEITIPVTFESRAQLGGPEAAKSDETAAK

aggregation value related to the value from reference experiment (CS + HSP27 + BVDU), which was set at 1.0 | Structure (SMILES)
1.76 | COc1ccc(-c2cccc(CC(=O)Nc3ccc(-n4cc(C)c(=O)[nH]c4=O)cc3)c2)cc1Cl [Compound 1, 2-(3′-Chloro-4′-methoxy-[1,1′-biphenyl]-3-yl)-N-(4-(5-methyl-2,4-dioxo-3,4-dihydropyrimidin-1(2H)-yl)phenyl)acetamide]
1.55 | Cc1cn(-c2ccc(NC(=O)Cc3cccc(-c4cccc(Cl)c4)c3)cc2)c(=O)[nH]c1=O [Compound 2, 2-(3′-chloro-[1,1′-biphenyl]-3-yl)-N-(4-(5-methyl-2,4-dioxo-3,4-dihydro-pyrimidin-1(2H)-yl)phenyl) acetamide]
1.44 | Cc1cn(-c2ccc(NC(=O)Cc3cccc(-c4ccc(Cl)c(Cl)c4)c3)cc2)c(=O)[nH]c1=O [Compound 3, 2-(3′,4′-dichloro-[1,1′-biphenyl]-3-yl)-N-(4-(5-methyl-2,4-dioxo-3,4-dihydro-pyrimidin-1(2H)-yl)phenyl) acetamide]
1.38 | Cc1ccc(-c2cccc(CC(=O)Nc3ccc(-n4cc(C)c(=O)[nH]c4=O)cc3)c2)cc1Cl [Compound 6, 2-(3′-chloro-4′-methyl-[1,1′-biphenyl]-3-yl)-N-(4-(5-methyl-2,4-dioxo-3,4-dihydropyrimidin-1(2H)-yl)phenyl) acetamide]
1.35 | Cc1cn(-c2ccc(NC(=O)Cc3cccc(-c4ccc(Cl)cc4Cl)c3)cc2)c(=O)[nH]c1=O [Compound 7, 2-(2′,4′-dichloro-[1,1′-biphenyl]-3-yl)-N-(4-(5-methyl-2,4-dioxo-3,4-dihydro-pyrimidin-1(2H)-yl)phenyl) acetamide]
1.34 | CC(C)Oc1ccc(-c2cccc(CC(=O)Nc3ccc(-n4ccc(=O)[nH]c4=O)cc3)c2)cc1Cl [Compound 8, 2-(3′-chloro-4′-isopropoxy-[1,1′-biphenyl]-3-yl)-N-(4-(2,4-dioxo-3,4-dihydro-pyrimidin-1(2H)-yl)phenyl) acetamide]
1.3 | Cc1cn(-c2ccc(NC(=O)Cc3cccc(-c4cccc(C(F)(F)F)c4)c3)cc2)c(=O)[nH]c1=O [Compound 9, N-(4-(5-methyl-2,4-dioxo-3,4-dihydro-pyrimidin-1(2H)-yl)phenyl)-2-(3′-(trifluoromethyl)-[1,1′-biphenyl]-3-yl)acetamide]
1.3 | Cc1ccc(-c2cccc(CC(=O)Nc3ccc(-n4ccc(=O)[nH]c4=O)cc3C)c2)cc1Cl [Compound 10, 2-(3′-chloro-4′-methyl-[1,1′-biphenyl]-3-yl)-N-(4-(2,4-dioxo-3,4-dihydro-pyrimidin-1(2H)-yl)-2-methyl-phenyl)acetamide]
1.28 | Cc1cn(-c2ccc(NC(=O)Cc3cccc(-c4cccc(OC(F)(F)F)c4)c3)cc2)c(=O)[nH]c1=O [Compound 11, N-(4-(5-methyl-2,4-dioxo-3,4-dihydro-pyrimidin-1(2H)-yl)phenyl)-2-(3′-(trifluoro-methoxy)-[1,1′-biphenyl]-3-yl) acetamide]
1.21 | COc1ccc(-c2cccc(CC(=O)Nc3ccc(-n4ccc(=O)[nH]c4=O)c(Cl)c3)c2)cc1Cl [Compound 13, 2-(3′-chloro-4′-methoxy-[1,1′-biphenyl]-3-yl)-N-(3-chloro-4-(2,4-dioxo-3,4-dihydro-pyrimidin-1(2H)-yl)phenyl) acetamide]
1.2 | COc1ccc(-c2cccc(CC(=O)Nc3ccc(-n4ccc(=O)[nH]c4=O)cc3C)c2)cc1Cl [Compound 14, 2-(3′-chloro-4′-methoxy-[1,1′-biphenyl]-3-yl)-N-(4-(2,4-dioxo-3,4-dihydro-pyrimidin-1(2H)-yl)-2-methyl-phenyl)acetamide]
